Data taken from BigSolDB 2.1.

Sc1nc2ccccc2[nH]1
solubility (mole fraction)
Conditions	283.15 K	288.15 K	293.15 K	298.15 K	303.15 K	308.15 K	313.15 K	318.15 K	323.15 K
in 2-butoxyethanol	0.0459	0.0463	0.0469	0.0475	0.0484	0.0491	0.0498	0.0507	0.0515
in 2-ethoxyethanol	0.0577	0.0583	0.059	0.0599	0.0607	0.0615	0.0623	0.0634	0.0646
in 2-methoxyethanol	0.0682	0.0691	0.0703	0.0717	0.0729	0.0742	0.0758	0.0775	0.0793
in 2-propoxyethanol	0.0497	0.0502	0.0506	0.0511	0.0519	0.0526	0.0535	0.0545	0.0555
in MIBK	0.00859	0.00884	0.00913	0.00945	0.00983	0.0102	0.0106	0.011	0.0114
in ethyl formate	0.00169	0.0018	0.00197	0.00211	0.00228	0.0025	0.00273	0.003	0.00323
in ethylene glycol	0.0137	0.0147	0.0162	0.0175	0.0193	0.0206	0.022	0.0238	0.0254
in isobutanol	0.00371	0.0046	0.00556	0.00638	0.00724	0.00813	0.0092	0.0103	0.0114
in isopropyl acetate	0.00245	0.00255	0.00272	0.00283	0.00303	0.00318	0.00337	0.00364	0.00397
in n-butyl acetate	0.00529	0.00538	0.00551	0.00564	0.00577	0.00597	0.00614	0.00637	0.00662
in sec-butanol	0.00591	0.00729	0.00851	0.00972	0.011	0.0126	0.014	0.0159	0.0177
